{"source": "patent US10300065B2", "about": "“Method of treating or prevention of atherothrombotic events in patients with history of myocardial infarction” (ASTRAZENECA AB, priority 2015, dated 2019)", "origin": "cited, not measured here", "key": {"[1]": {"settings": "human, in vivo, po; cited from earlier work"}, "[2]": {"test_system": "patients with acute coronary syndrome", "settings": "PLATO, cited from earlier work"}}, "data": [{"compound": "CCCSc1nc(N[C@@H]2C[C@H]2c2ccc(F)c(F)c2)c2nnn([C@@H]3C[C@H](O)[C@@H](O)[C@H]3O)c2n1", "note": "[AR-C124910XX]", "values": [{"measurement": "AUC and cmax of crushed tablets relative to whole tablets (bioequivalence)", "setting": "[1]", "result": "80-125%"}]}, {"compound": "COC(=O)[C@H](c1ccccc1Cl)N1CCc2sccc2C1", "note": "[clopidogrel]", "values": [{"measurement": "serum uric acid level increase from baseline", "setting": "[2]; clopidogrel", "result": "approximately 0.2 mg/dL"}, {"measurement": "reports of gout", "setting": "[2]; each treatment group", "result": 0.6, "unit": "%"}]}]}
